Values joined by “and” are separate entries in the source; they are usually repeats but may differ in a detail not shown here. Equal values may be shown once.
How the values were obtained:
[1] = test system: special operations veterans with combat and/or blast exposure; test: Clinician-Administered PTSD Scale for DSM-5 (CAPS-5); format: in vivo, human
Source text: The pre-specified primary outcome was change in the World Health Organization Disability Assessment Schedule 2.0 (WHODAS) (Gold L. H. et al., J. Am. Acad. Psychiatry Law 42, 9 (2014)) from baseline to post-treatment, with change from baseline to the one-month follow-up a secondary outcome. Additional pre-specified secondary outcomes included post-treatment changes on the Clinician Administered PTSD Scale (CAPS-5; Weathers, F. W. et al., Psychol. Assess., 30, 383-395 (2018)), Montgomery-Åsberg Depression Rating Scale (MADRS; Montgomery, S. A., Br. J. Psychiatry J. Ment. Sci., 134, 382-389 (1979)) and the Hamilton-Anxiety Rating Scale (HAM-A; Bruss, G. S., et al., Psychiatry Res., 53, 191-202 (1994)). […] An additional dose of magnesium was administered approximately 12 hours later. To assess the significance of post-treatment changes, linear mixed effects (LME) models were used for each outcome measure. False Discovery Rate (FDR; Benjamini, Y. et al., J. R. Stat. Soc. Ser. B Methodol., 57, 289-300 (1995)) was applied to correct for multiple comparisons.
To further assess changes in comorbid psychiatric symptoms identified by the models, mean percent reduction, response rate, and remission rate according to the CAPS-5, MADRS and HAM-A (Table 1) were calculated. Response on the CAPS-5, MADRS, and HAM-A was defined as a reduction of at least 10 points (Mitchell, J. M. et al., Nat. Med. 27, 1025-1033(2021)), 50% (Leucht, S. et al., J. Affect. Disord. 210, 287-293 (2017)), and 50% (McIntyre, A. et al., Depress. Anxiety 24, 487-494 (2007)), respectively; remission as loss of diagnosis and a total score below 12 (Mitchell, J. M. et al. supra), <8 (Leucht, S. et al. supra), and <8(McIntyre, A. et al., supra), respectively. One participant's baseline scores met criteria for remission in all three scales and so were excluded from the calculation of response and remission rates, leaving 29 participants in these specific analyses.
With subjects in the fasting state, an intravenous infusion of 1 gram of magnesium sulfate was administered 1-2 hours prior to treatment. […] Medical staff (MD, RN, or EMT) were onsite at a ratio of at least 1 staff per 2 patients throughout treatment for monitoring and management, but no specific coaching or psychological support was provided during treatment.
Clinician administered scales included CAPS-5 (Clinician-administered PTSD Scale for DSM-5), which is a gold standard assessment of PTSD symptom severity; MADRS (Montgomery-Asberg Depression Rating Scale), a measure for depressive symptom severity: and Hamilton-Anxiety Rating Scale (HAM-A) (Shear, M. K. et al., Depress. Anxiety 13, 166-178 (2001)) a measure for anxiety symptom severity: SCID-5 (Structured Clinical Interview for DSM-5) Overview for a historical and environmental context of symptom presentation: MINI DSM-5 (Mini International Neuropsychiatric Interview from DSM-5) for a structured psychodiagnostics assessment: BAT-L (Boston Assessment of TBI-Lifetime) for a lifetime history of TBI and blast exposure: and Ohio State University TBI Identification Method (Short Form) for a lifetime history of TBI. MADRS testing provides an indication of depressive symptoms, CAPS-5 provides an indication of PTSD and SIGH-A provides an indication of anxiety. Collectively these overlap to provide indication of mood, concentration, sleep and tension.
For the CAPS-5, the test version with a […] structured interview of PTSD symptoms over the past week was used, using a 0 (“Absent”) to 4 (“Extreme/Incapacitating”) scale, with possible total scores ranging from 0) to 80. The score range 23 to 34 is considered moderate PTSD while a higher score represents severe PTSD (Weathers, F. W. et al., Psychol. Assess. 30, 383-395 (2018)).

[2] = test system: special operations veterans with combat and/or blast exposure; test: Self-reported alcohol consumption and intoxication; format: in vivo, human; conditions: one month following treatment
Protocol: Alcohol consumption in the enrolled subjects was also evaluated. At baseline, 11 of the 30 enrolled subjects reported drinking at least four days per week and 12 of the 30 enrolled subjects reported drinking at least four days per week over the last month. Some of the subjects reported drinking daily. One month following treatment, none (zero) of the enrolled subjects reported drinking more than three times per week. 28 of the 30 enrolled subjects reported drinking less than twice per week over the past month.
Intoxication by alcohol was also evaluated in the enrolled subjects. At baseline, 9 of the 30 enrolled subjects reported being intoxicated more than once over the last 30 days, with some subjects reporting being intoxicated for 25 of the last 30 days. One month following treatment, one participant reported four episodes of intoxication after reporting 23 episodes at baseline.

[3] = 1-mo. post, only participants meeting relevant MINI diagnostic criteria
[4] = 1-mo. post, only participants with mild TBI
[5] = 1-wk. post, only participants meeting relevant MINI diagnostic criteria
[6] = 1-wk. post, only participants with mild TBI

CCC1CC2CC3c4[nH]c5ccc(OC)cc5c4CCN(C2)C13 (stereo not shown) [ibogaine, Ibogaine]
CAPS-5 % Reduction vs Baseline [1, 3]: 86% ± 19% | CAPS-5 Remission Rate [1, 3]: 83% | CAPS-5 Response Rate [1, 3]: 100% | CAPS-5 score ([1]; 1-mo. post, only participants meeting relevant MINI diagnostic criteria at baseline (N 23), baseline 35.7 ± 11.0): 6.0 | CAPS-5 % Reduction vs Baseline [1, 4]: 88% ± 17% | CAPS-5 Remission Rate [1, 4]: 85% | CAPS-5 Response Rate [1, 4]: 100% | CAPS-5 score ([1]; 1-mo. post, only participants with mild TBI (N 28), baseline 31.7 ± 13.0): 4.8 | CAPS-5 score ([1]; 1-wk post, only participants meeting relevant MINI diagnostic criteria at baseline (N 23), baseline 35.7 ± 11.0): 4.4 | CAPS-5 % Reduction vs Baseline [1, 5]: 87% ± 17% | CAPS-5 Remission Rate [1, 5]: 83% | CAPS-5 Response Rate [1, 5]: 96% | CAPS-5 % Reduction vs Baseline [1, 6]: 89% ± 14% | CAPS-5 Remission Rate [1, 6]: 89% | CAPS-5 Response Rate [1, 6]: 96% | CAPS-5 score ([1]; 1-wk. post, only participants with mild TBI (N 28), baseline 31.7 ± 13.0): 3.6 | CAPS-5, effect size D ([1]; baseline vs 1-mo. post, only participants meeting relevant MINI diagnostic criteria (N 23)): 2.98 | CAPS-5, effect size D ([1]; baseline vs 1-mo. post, only participants with mild TBI (N 28)): 2.49 | CAPS-5, effect size D ([1]; baseline vs 1-wk post, only participants with mild TBI (N 28)): 2.28 | CAPS-5, effect size D ([1]; baseline vs 1-wk. post, only participants meeting relevant MINI diagnostic criteria (N 23)): 2.75 | CAPS-5, effect size D ([1]; baseline vs one-month post, all participants): 2.54 | CAPS-5, effect size D ([1]; baseline vs one-week post, all participants): 2.30 | subjects lower than mild PTSD symptom severity (CAPS-5) ([1]; one month following treatment (FIG. 3B), mild = 12-22): 80% | CAPS-5 Remission Rate ([1]; one-month post, 29 participants, remission = loss of diagnosis and total score below 12): 86% | CAPS-5 Response Rate ([1]; one-month post, 29 participants, response = reduction of at least 10 points): 100% | CAPS-5 score ([1]; one-month post, all participants, baseline 31.7 ± 12.5, mean ± SD): 4.8 | CAPS-5 % Reduction vs Baseline ([1]; one-month post, all participants, mean ± SD): 88% and 88% ± 17% | CAPS-5 Remission Rate ([1]; one-week post, 29 participants, remission = loss of diagnosis and total score below 12): 86% | CAPS-5 Response Rate ([1]; one-week post, 29 participants, response = reduction of at least 10 points): 97% | CAPS-5 score ([1]; one-week post, all participants, baseline 31.7 ± 12.5, mean ± SD): 3.9 | CAPS-5 % Reduction vs Baseline ([1]; one-week post, all participants, mean ± SD): 88% ± 15% | episodes of intoxication reported by one participant ([2]; 23 episodes at baseline): four | enrolled subjects reporting drinking more than three times per week ([2]; 30 subjects, at baseline 11 of 30 drank at least four days per week): zero | enrolled subjects reporting drinking less than twice per week over the past month ([2]; of the 30 enrolled subjects): 28

Reference: patent US20240415845A1, “Compositions of Iboga Alkaloids and Methods of Treatment” (priority 2022, published 2024)
